Assay results: patent publication US20240376108A1, “SALT AND CRYSTAL FORM OF PYRAZOLE-CONTAINING POLYCYCLIC DERIVATIVE, AND PREPARATION METHOD THEREFOR AND USE THEREOF” (Shanghai Hansoh Biomedical Co., Ltd., priority 2021, published 2024)

Experiments:
[1] = Solid stability experiment (high temperature, high humidity, high temperature and high humidity); format: physicochemical
Description: 4.1.1 Experimental objective: To investigate the physical and chemical stability of the crystal form of the compound under the conditions of high temperature, high humidity, as well as high temperature and high humidity, so as to provide a basis for crystal form screening and storage of the crystal form of the compound.
The content of the salt was determined by HPLC using the external standard method, and the change of relevant substances was calculated by using the chromatographic peak area normalization method.

[2] = Hygroscopicity experiment (DVS); format: physicochemical; settings: 25° C.
Excerpt: 7.1 Hygroscopicity experiment of crystal forms of different salts of compound 2-(2-cyano-5-oxo-8-(trifluoromethyl)pyrazolo[1,5-a]pyrido[3,2-e]pyrimidin-4(5H)-yl)-N-(5-fluoropyridin-2-yl)acetamide
7.1.1 Experimental objective: To investigate the hygroscopicity of crystal forms of different salts of compound 2-(2-cyano-5-oxo-8-(trifluoromethyl)pyrazolo[1,5-a]pyrido[3,2-e]pyrimidin-4(5H)-yl)-N-(5-fluoropyridin-2-yl)acetamide at different relative humidity, so as to provide a basis for storage.
7.1.2 Experimental protocol: Crystal forms of different salts of the compound were placed in saturated water vapor with different relative humidity to achieve dynamic equilibrium between the compound and water vapor, and the percentage of hygroscopic weight gain of the compound after equilibrium was calculated.

[3] = Pharmacokinetic assay of the salt forms in rats (10 mg/kg); format: in vivo; settings: SD rats; for exposure AUC and maximum plasma concentration Cmax compared with the free base: 10 mg/kg; for AUC(0-t) / MRT inf / half-life / Tmax / Cmax: male, rat, po, p.o. 10 mg/kg, plasma, vehicle 0.5% HPMC; for AUC(0-t): read-out: Area under curve AUC0-t; for MRT inf: read-out: Average residence time MRT0-∞; for half-life: read-out: Half life t1/2 (converted); for Tmax: read-out: Peak time tmax; for Cmax: read-out: Plasma concentration Cmax
Description: 2.3 Pharmacokinetic assay of the methanesulfonate in rats
2.3.1. Study objective: SD rats were used as test animals. The pharmacokinetic behavior of various salt forms of 2-(2-cyano-5-oxo-8-(trifluoromethyl)pyrazolo[1,5-a]pyrido[3,2-e]pyrimidin-4(5H)-yl)-N-(5-fluoropyridin-2-yl)acetamide was studied in rat body (plasma) by orally administration at a dose of 10 mg/kg.
2.3.2.4 Administration: After an overnight fast, male SD rats (3 rats per group) were administered p.o. with the test compound at a dose of 10 mg/kg and a volume of 10 mL/kg.
2.3.2.5 Sample collection: 0.2 mL of blood was taken from the jugular vein of the rat before administration and at 0, 0.5, 1, 2, 4, 6, 8 and 24 hours after administration. The samples were stored in EDTA-K2 tubes, and centrifuged for 6 minutes at 4° C., 6000 rpm to separate the plasma. The plasma samples were stored at −80° C.
1) 160 μL of acetonitrile was added to 40 μL of the plasma sample for precipitation, and then the mixture was centrifuged at 3500×g for 5 to 20 minutes.
2) After the above process, 100 μL of the supernatant was taken to analyze the concentration of the test compound by LC/MS/MS.
2.3.2.7 Liquid chromatography analysis • Liquid chromatography condition: Shimadzu LC-20AD pump • Mass spectrometry condition: AB Sciex API 4000 mass spectrometer • Chromatographic column: phenomenex Gemiu 5 um C18 50×4.6 mm • Mobile phase: Eluent A was 0.1% formic acid in water, and Eluent B was acetonitrile • Flow rate: 0.8 mL/min • Elution time: 0-4.0 minutes, the eluent is as follows:
The main parameters of pharmacokinetics were calculated by WinNonlin 8.2.

[4] = High humidity (92.5% RH), Day 7
[5] = High humidity (92.5% RH), Day 14
[6] = High temperature (60° C.), Day 7
[7] = High temperature (60° C.), Day 14
[8] = High temperature and high humidity (50° C.&75% RH), Day 7
[9] = High temperature and high humidity (50° C.&75% RH), Day 14
[10] = Cycle 1, target relative humidity 0.0%
[11] = Cycle 1, target relative humidity 10.0%
[12] = Cycle 1, target relative humidity 20.0%
[13] = Cycle 1, target relative humidity 30.0%
[14] = Cycle 1, target relative humidity 40.0%
[15] = Cycle 1, target relative humidity 50.0%
[16] = Cycle 1, target relative humidity 60.0%
[17] = Cycle 1, target relative humidity 70.0%
[18] = Cycle 1, target relative humidity 80.0%
[19] = Cycle 1, target relative humidity 90.0%
[20] = Cycle 1, target relative humidity 95.0%
[21] = Cycle 2, target relative humidity 0.0%
[22] = Cycle 2, target relative humidity 10.0%
[23] = Cycle 2, target relative humidity 20.0%
[24] = Cycle 2, target relative humidity 30.0%
[25] = Cycle 2, target relative humidity 40.0%
[26] = Cycle 2, target relative humidity 50.0%
[27] = Cycle 2, target relative humidity 60.0%
[28] = Cycle 2, target relative humidity 70.0%
[29] = Cycle 2, target relative humidity 80.0%
[30] = Cycle 2, target relative humidity 90.0%
[31] = Cycle 2, target relative humidity 95.0%

In the case of N#Cc1cc2n(CC(=O)Nc3ccc(F)cn3)c(=O)c3ccc(C(F)(F)F)nc3n2n1.O=S(=O)(O)O [Sulfate (crystal form B), 2-(2-cyano-5-oxo-8-(trifluoromethyl)pyrazolo[1,5-a]pyrido[3,2-e]pyrimidin-4(5H)-yl)-N-(5-fluoropyridin-2-yl)acetamide sulfate], the “solid stability under high humidity” value ([1]; 92.5% RH, 7 and 14 days) is reported as “stable”, the “% increase of total impurities” value [1, 4] is reported as under 0.1% and the “% maximum increase of single impurity” value [1, 4] is reported as under 0.1%. The “% increase of total impurities” value [1, 5] was under 0.1%, the “% maximum increase of single impurity” value [1, 5] was under 0.1% and the “% increase of total impurities” value [1, 6] was over 0.2%. The “% maximum increase of single impurity” value [1, 6] was under 0.1%, the “% increase of total impurities” value [1, 7] was over 0.4% and the “% maximum increase of single impurity” value [1, 7] was over 0.1%. For the same compound, the “% increase of total impurities” value [1, 8] was over 0.2%, the “% maximum increase of single impurity” value [1, 8] was over 0.1% and the “% increase of total impurities” value [1, 9] was over 0.2%. For the same compound, the “% maximum increase of single impurity” value [1, 9] was over 0.1%, the “% percentage of mass change, Desorption” value [2, 10] was −0.027% and the “% percentage of mass change, Sorption” value [2, 10] was −0.002%. The “% percentage of mass change, Desorption” value [2, 11] was 0.087%, the “% percentage of mass change, Sorption” value [2, 11] was 0.099% and the “% percentage of mass change, Desorption” value [2, 12] was 0.168%. For the same compound, the “% percentage of mass change, Sorption” value [2, 12] was 0.171%, the “% percentage of mass change, Desorption” value [2, 13] was 0.250% and the “% percentage of mass change, Sorption” value [2, 13] was 0.236%. The “% percentage of mass change, Desorption” value [2, 14] was 0.341%, the “% percentage of mass change, Sorption” value [2, 14] was 0.303% and the “% percentage of mass change, Desorption” value [2, 15] was 0.456%. The “% percentage of mass change, Sorption” value [2, 15] was 0.376%, the “% percentage of mass change, Desorption” value [2, 16] was 0.540% and the “% percentage of mass change, Sorption” value [2, 16] was 0.455%. For the same compound, the “% percentage of mass change, Desorption” value [2, 17] was 0.652%, the “% percentage of mass change, Sorption” value [2, 17] was 0.552% and the “% percentage of mass change, Desorption” value [2, 18] was 0.777%. For the same compound, the “% percentage of mass change, Sorption” value [2, 18] was 0.691%, the “% percentage of mass change, Desorption” value [2, 19] was 1.118% and the “% percentage of mass change, Sorption” value [2, 19] was 1.010%. For the same compound, the “% percentage of mass change, Desorption” value [2, 20] was 1.608%, the “% percentage of mass change, Sorption” value [2, 20] was 1.608% and the “% percentage of mass change, Desorption” value [2, 21] was −0.051%. The “% percentage of mass change, Sorption” value [2, 21] was −0.027%, the “% percentage of mass change, Desorption” value [2, 22] was 0.065% and the “% percentage of mass change, Sorption” value [2, 22] was 0.070%. The “% percentage of mass change, Desorption” value [2, 23] was 0.149%, the “% percentage of mass change, Sorption” value [2, 23] was 0.147% and the “% percentage of mass change, Desorption” value [2, 24] was 0.230%. For the same compound, the “% percentage of mass change, Sorption” value [2, 24] was 0.218%, the “% percentage of mass change, Desorption” value [2, 25] was 0.322% and the “% percentage of mass change, Sorption” value [2, 25] was 0.287%. The “% percentage of mass change, Desorption” value [2, 26] was 0.422%, the “% percentage of mass change, Sorption” value [2, 26] was 0.369% and the “% percentage of mass change, Desorption” value [2, 27] was 0.529%. For the same compound, the “% percentage of mass change, Sorption” value [2, 27] was 0.450%, the “% percentage of mass change, Desorption” value [2, 28] was 0.632% and the “% percentage of mass change, Sorption” value [2, 28] was 0.545%. The “% percentage of mass change, Desorption” value [2, 29] was 0.761%, the “% percentage of mass change, Sorption” value [2, 29] was 0.682% and the “% percentage of mass change, Desorption” value [2, 30] was 1.087%. For the same compound, the “% percentage of mass change, Sorption” value [2, 30] was 1.007%, the “% percentage of mass change, Desorption” value [2, 31] was 1.618% and the “% percentage of mass change, Sorption” value [2, 31] was 1.618%. The “exposure AUC and maximum plasma concentration Cmax compared with the free base” value [3] was “superior”, the AUC(0-t) [3] was 21600 ng·h/mL and the MRT inf [3] was 4.6 h. For the same compound, the half-life [3] was 2.8 h, the Tmax [3] was 2 h and the Cmax [3] was 3080 ng/mL.
For Br.N#Cc1cc2n(CC(=O)Nc3ccc(F)cn3)c(=O)c3ccc(C(F)(F)F)nc3n2n1 [Hydrobromide (crystal form B), 2-(2-cyano-5-oxo-8-(trifluoromethyl)pyrazolo[1,5-a]pyrido[3,2-e]pyrimidin-4(5H)-yl)-N-(5-fluoropyridin-2-yl)acetamide hydrobromide], the “% percentage of mass change, Desorption” value [2, 14] was 4.247%, the “% percentage of mass change, Sorption” value [2, 14] was 4.140% and the “% percentage of mass change, Desorption” value [2, 15] was 4.359%. The “% percentage of mass change, Sorption” value [2, 15] was 4.233%, the “% percentage of mass change, Desorption” value [2, 16] was 4.448% and the “% percentage of mass change, Sorption” value [2, 16] was 4.321%. For the same compound, the “% percentage of mass change, Desorption” value [2, 17] was 4.532%, the “% percentage of mass change, Sorption” value [2, 17] was 4.415% and the “% percentage of mass change, Desorption” value [2, 18] was 4.627%. The “% percentage of mass change, Sorption” value [2, 18] was 4.529%, the “% percentage of mass change, Desorption” value [2, 19] was 4.787% and the “% percentage of mass change, Sorption” value [2, 19] was 4.715%. For the same compound, the “% percentage of mass change, Desorption” value [2, 20] was 4.947%, the “% percentage of mass change, Sorption” value [2, 20] was 4.947% and the “% percentage of mass change, Desorption” value [2, 21] was −0.019%. For the same compound, the “% percentage of mass change, Sorption” value [2, 21] was −0.007%, the “% percentage of mass change, Desorption” value [2, 22] was 0.124% and the “% percentage of mass change, Sorption” value [2, 22] was 0.070%. For the same compound, the “% percentage of mass change, Desorption” value [2, 23] was 0.220%, the “% percentage of mass change, Sorption” value [2, 23] was 0.153% and the “% percentage of mass change, Desorption” value [2, 24] was 3.962%. For the same compound, the “% percentage of mass change, Sorption” value [2, 24] was 3.900%, the “% percentage of mass change, Desorption” value [2, 25] was 4.112% and the “% percentage of mass change, Sorption” value [2, 25] was 4.030%. The “exposure AUC and maximum plasma concentration Cmax compared with the free base” value [3] was “superior”, the AUC(0-t) [3] was 16800 ng·h/mL and the MRT inf [3] was 4.4 h. It also gave a half-life [3] of 2.6 h, a Tmax [3] of 1 h and a Cmax [3] of 2470 ng/mL.
